Calls of active or inactive are those of the source.
Columns and labels:
[1] = molecular target: DNA dC->dU-editing enzyme APOBEC-3G (Homo sapiens, UniProt Q9HC16); format: functional;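 also: Dose-response counterscreen measuring inhibition of APOBEC3G DNA deaminase activity, run while confirming APOBEC3A inhibitors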
[2] = molecular target: DNA dC->dU-editing enzyme APOBEC-3A (Homo sapiens, UniProt P31941); experiment: Dose Response confirmation of small molecule APOBEC3A DNA Deaminase Inhibitors via a fluorescence-based single-stranded DNA deaminase assay. [Related pubchem assays (depositor defined):AID493011, AID493024]; format: functional
[3] = molecular target: Beta-galactosidase (Escherichia coli, UniProt Q8VNN2); experiment: Dose response counterscreen for EBI2 assay utilizing the enzyme, b-galactosidase.; format: functional
[4] = inhibitors of intracellular T. cruzi replication, confirmation, NIH3T3 host cells, beta-gal luminescence (AID 2044); format: functional, cell-based;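 also: intracellular parasites grown in NIH/3T3 mouse fibroblasts as host cells; luminescent beta-galactosidase reporter signal from transgenic T. cruzi replicating inside host cells; inhibitors lower the luminescence signal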
[5] = cytotoxicity toward NIH3T3 fibroblasts, dose response, counter-screen, cell-based, ATP luminescence, mouse fibroblasts (AID 2010); format: functional;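 also: cells exposed to compound for about 90 hours before reading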
[6] = system: INS1; experiment: beta cell apoptosis inhibitors, cytokine rescue, dose response, luminescence, retest (AID 449756); format: functional, cell-based; conditions: Rattus norvegicus;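 also: cell death triggered by IL-1 beta plus TNF-alpha plus IFN-gamma mixture; protective hits raise ATP signal compared with cytokine alone wells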
[7] = molecular target: T1, DNA repair protein RAD52 homolog (Homo sapiens, UniProt P43351); format: functional, biochemical
T1 sequence (P43351 whole entry): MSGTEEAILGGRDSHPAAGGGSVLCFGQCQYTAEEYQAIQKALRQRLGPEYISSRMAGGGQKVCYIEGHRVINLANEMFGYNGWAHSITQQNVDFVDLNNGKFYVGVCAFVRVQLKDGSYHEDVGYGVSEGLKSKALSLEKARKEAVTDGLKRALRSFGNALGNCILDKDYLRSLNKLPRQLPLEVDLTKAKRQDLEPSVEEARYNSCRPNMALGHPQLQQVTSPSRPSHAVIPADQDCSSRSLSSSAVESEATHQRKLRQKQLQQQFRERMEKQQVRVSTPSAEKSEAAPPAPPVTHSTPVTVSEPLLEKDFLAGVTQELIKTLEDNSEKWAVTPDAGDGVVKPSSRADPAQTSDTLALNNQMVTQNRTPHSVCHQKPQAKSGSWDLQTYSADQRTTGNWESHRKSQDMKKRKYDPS

[8] = cytotoxicity in HEK-293T cells, dose response, cytotoxicity control for TCR NF-kB inhibitor project, luminescence, T-cell screen hits (AID 489026); format: functional, cell-based;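 also: cells exposed to compound about 14 hours before the viability readout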
[9] = system: HEK293; experiment: cells; conditions: Homo sapiens;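 also: cells exposed to compound for 14 hours overnight before viability readout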
[10] = molecular target: Tumor necrosis factor (Homo sapiens, UniProt P01375); experiment: TNFa-triggered NF-kB activation inhibitors, SAR follow-up, cell-based, revised (AID 2337); format: functional
[11] = molecular target: T2, Nucleotide-binding oligomerization domain-containing protein 1 (Homo sapiens, UniProt Q9Y239); experiment: NOD1 signaling inhibitors, SAR follow-up, revised (AID 2333); format: functional
T2 sequence (Q9Y239 whole entry): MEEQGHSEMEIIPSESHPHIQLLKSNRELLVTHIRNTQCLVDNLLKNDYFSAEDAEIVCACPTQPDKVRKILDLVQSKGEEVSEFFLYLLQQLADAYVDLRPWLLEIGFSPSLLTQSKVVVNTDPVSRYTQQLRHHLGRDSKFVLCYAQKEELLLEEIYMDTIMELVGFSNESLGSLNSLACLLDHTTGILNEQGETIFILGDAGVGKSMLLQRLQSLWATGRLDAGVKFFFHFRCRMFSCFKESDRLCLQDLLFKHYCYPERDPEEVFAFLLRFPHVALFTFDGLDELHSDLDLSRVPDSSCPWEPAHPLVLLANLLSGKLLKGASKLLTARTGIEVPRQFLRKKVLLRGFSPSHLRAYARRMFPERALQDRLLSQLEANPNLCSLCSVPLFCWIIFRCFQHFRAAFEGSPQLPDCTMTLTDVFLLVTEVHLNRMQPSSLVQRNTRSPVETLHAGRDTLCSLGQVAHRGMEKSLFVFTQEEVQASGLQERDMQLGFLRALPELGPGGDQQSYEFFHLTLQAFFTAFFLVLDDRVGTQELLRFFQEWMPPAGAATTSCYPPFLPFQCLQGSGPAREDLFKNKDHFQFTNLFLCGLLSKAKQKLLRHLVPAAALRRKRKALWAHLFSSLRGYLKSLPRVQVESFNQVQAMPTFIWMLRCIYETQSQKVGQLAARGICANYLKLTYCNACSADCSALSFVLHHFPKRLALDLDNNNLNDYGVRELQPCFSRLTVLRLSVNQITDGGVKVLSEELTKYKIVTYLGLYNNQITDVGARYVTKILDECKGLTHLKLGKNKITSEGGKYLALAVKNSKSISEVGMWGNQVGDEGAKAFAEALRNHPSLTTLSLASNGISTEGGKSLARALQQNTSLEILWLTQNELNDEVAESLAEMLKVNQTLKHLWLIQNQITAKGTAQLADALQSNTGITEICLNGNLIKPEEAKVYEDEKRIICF

[12] = molecular target: T3, Protein skinhead-1 (Caenorhabditis elegans, UniProt P34707); format: functional
T3 sequence (P34707 whole entry): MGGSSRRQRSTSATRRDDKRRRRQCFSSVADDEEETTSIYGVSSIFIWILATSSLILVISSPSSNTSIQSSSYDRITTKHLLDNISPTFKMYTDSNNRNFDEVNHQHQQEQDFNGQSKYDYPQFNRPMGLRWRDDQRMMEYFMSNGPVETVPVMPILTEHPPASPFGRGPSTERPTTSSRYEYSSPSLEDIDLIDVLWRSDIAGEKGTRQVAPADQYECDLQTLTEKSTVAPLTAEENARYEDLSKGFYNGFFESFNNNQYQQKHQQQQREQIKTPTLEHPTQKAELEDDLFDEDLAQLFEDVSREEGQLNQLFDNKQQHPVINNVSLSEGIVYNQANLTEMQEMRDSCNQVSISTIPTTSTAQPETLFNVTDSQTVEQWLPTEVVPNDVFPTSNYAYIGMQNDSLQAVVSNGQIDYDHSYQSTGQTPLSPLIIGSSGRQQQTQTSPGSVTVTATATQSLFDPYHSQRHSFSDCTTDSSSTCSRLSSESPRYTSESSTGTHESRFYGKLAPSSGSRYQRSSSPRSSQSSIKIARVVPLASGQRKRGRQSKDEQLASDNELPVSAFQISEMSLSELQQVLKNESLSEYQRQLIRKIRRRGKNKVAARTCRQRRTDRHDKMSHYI

[13] = molecular target: T4, Corticotropin-releasing factor receptor 2/Corticotropin-releasing factor-binding protein (Homo sapiens, UniProt P24387+Q13324); experiment: Dose Response confirmation of uHTS hits for small molecule antagonists of the CRF-binding protein and CRF-R2 receptor complex.; format: functional; conditions: read-out: IC50_Mean
T4 sequence (Q13324 whole entry): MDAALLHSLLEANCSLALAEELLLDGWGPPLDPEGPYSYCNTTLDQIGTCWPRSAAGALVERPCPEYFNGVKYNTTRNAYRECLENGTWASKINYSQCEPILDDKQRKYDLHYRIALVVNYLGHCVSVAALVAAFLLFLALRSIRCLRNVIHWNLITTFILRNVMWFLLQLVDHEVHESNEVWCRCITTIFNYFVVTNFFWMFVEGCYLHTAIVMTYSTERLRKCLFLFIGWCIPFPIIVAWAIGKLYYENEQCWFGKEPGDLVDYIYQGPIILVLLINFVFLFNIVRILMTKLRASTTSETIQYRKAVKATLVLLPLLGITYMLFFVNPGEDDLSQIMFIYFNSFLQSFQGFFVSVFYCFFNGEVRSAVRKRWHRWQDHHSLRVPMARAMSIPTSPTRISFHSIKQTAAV
T4 sequence (P24387 whole entry): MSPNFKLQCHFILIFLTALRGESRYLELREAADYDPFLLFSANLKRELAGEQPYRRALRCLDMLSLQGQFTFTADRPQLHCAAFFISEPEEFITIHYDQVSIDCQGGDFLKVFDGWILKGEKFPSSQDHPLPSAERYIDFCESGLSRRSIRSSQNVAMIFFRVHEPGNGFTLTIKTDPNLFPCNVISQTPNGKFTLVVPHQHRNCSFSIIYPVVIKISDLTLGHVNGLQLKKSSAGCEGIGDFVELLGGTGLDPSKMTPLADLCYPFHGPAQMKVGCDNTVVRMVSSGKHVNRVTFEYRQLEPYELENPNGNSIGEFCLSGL

[14] = molecular target: T4, Corticotropin-releasing factor receptor 2/Corticotropin-releasing factor-binding protein; experiment: activators of CRF receptor 2 with binding protein – uHTS hits, confirmation (AID 602473); format: functional; conditions: read-out: EC50_Mean
[15] = A549 cell cytotoxicity, dose response, cytotoxicity control, plate reader, cherry-pick, antagonist series (AID 743412); format: functional, cell-based
[16] = HepG2 cell cytotoxicity, dose response, cytotoxicity control, plate reader, cherry-pick, antagonist series (AID 743416); format: functional, cell-based

Sequence of DNA dC->dU-editing enzyme APOBEC-3A (P31941 whole entry): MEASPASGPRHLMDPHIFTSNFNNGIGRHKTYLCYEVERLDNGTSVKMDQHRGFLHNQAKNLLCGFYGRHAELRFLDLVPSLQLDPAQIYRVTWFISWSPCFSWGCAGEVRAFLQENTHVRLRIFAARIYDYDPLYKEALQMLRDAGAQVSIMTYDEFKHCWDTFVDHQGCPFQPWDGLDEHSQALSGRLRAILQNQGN
Sequence of DNA dC->dU-editing enzyme APOBEC-3G (Q9HC16 whole entry): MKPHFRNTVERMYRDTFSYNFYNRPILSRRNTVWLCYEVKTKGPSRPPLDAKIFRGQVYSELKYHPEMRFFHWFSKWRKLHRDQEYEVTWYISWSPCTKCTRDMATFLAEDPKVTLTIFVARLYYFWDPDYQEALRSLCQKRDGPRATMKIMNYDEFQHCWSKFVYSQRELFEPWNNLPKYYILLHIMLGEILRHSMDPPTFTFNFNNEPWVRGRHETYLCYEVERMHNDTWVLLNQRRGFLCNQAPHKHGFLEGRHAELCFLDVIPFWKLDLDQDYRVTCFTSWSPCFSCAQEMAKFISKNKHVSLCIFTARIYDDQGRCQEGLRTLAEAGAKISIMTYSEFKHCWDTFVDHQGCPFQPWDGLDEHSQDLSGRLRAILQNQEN
Sequence of Beta-galactosidase (Q8VNN2 whole entry): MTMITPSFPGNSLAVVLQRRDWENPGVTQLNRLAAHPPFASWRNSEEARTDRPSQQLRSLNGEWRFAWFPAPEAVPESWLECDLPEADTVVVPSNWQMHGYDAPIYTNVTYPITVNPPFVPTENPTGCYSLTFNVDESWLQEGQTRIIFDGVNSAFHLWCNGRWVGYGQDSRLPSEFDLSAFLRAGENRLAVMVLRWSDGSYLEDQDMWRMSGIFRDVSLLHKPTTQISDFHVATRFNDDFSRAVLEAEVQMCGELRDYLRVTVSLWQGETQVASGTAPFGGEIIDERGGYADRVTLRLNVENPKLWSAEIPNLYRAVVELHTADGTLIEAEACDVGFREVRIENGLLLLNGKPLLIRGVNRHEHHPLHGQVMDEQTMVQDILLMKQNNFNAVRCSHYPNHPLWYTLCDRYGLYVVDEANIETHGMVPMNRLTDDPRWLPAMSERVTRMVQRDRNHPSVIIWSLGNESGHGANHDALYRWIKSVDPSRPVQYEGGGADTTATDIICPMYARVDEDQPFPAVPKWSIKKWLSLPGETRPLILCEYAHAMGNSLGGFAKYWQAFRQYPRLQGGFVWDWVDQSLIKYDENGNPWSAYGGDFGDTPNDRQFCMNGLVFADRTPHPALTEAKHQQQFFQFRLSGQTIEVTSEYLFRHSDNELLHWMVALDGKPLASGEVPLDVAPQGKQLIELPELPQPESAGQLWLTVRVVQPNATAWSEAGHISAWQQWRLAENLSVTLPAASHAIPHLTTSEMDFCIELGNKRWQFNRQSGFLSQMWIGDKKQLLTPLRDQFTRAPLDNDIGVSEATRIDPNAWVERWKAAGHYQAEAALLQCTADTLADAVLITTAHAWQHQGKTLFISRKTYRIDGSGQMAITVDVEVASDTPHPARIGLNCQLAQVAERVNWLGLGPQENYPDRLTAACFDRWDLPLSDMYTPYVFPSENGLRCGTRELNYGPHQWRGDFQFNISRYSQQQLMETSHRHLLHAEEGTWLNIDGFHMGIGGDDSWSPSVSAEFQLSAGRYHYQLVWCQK
Sequence of Tumor necrosis factor (P01375 whole entry, the tested form may be a part): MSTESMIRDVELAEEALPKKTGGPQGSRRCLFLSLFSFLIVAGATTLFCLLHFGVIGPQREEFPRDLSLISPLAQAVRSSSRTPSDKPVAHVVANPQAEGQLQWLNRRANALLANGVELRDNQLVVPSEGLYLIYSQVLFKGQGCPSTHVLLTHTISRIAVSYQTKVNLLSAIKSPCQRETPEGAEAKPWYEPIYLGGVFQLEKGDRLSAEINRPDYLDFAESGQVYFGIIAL

| IC50 [3] | SMILES | IC50 [1] | IC50 [2] | further results |
| --- | --- | --- | --- | --- |
|  | CN(Cc1ccccc1)C(=O)c1ncn(C)c1C(=O)N(C)Cc1ccccc1 | > 100 µM (inactive) | 3.15 µM (active) |  |
| > 80 µM (inactive) | Cc1sc2nc(C3CC3)nc(N3CCN(C(=O)c4ccc(Cl)cc4)CC3)c2c1C |  |  |  |
|  | CC1(C)CC(N2CCN(c3ccccc3)CC2)=CC(=[N+]2CCCC2)C1 | 2.24 µM (active) | 2.15 µM (active) | EC50 [4]: 0.263 µM (active); EC50 [5]: > 60 µM (not active); AC50 [6]: 1.81 µM (active) |
|  | Cn1c(C(=O)NCCCN2CCCCCC2)cc2c(=O)n(C)c3ccccc3c21 |  |  | AC50 [7]: 12.4 µM (active) |
|  | CC(=O)c1ccc(N2CCN(S(=O)(=O)c3ccc4c(c3)CC(C)N4C(=O)C3CC3)CC2)cc1 (stereo unspecified) |  |  | IC50 [8]: > 80 µM (inactive); IC50 [9]: > 20 µM (inactive); IC50 [10]: 3.18 µM (active); IC50 [11]: 8.77 µM (active) |
|  | COc1ccc2[nH]c(=O)c(CN(C(=O)c3ccco3)C(C)C)cc2c1 | 6.32 µM (active) | 6.26 µM (active) |  |
|  | Cc1ccc(/C=C2/SC(Nc3ccc(F)cc3)=NC2=O)s1 | 7.58 µM (active) | 3.22 µM (active) | IC50 [12]: > 100 µM (inactive) |
|  | CCN1C(NCCOC)=N[C@@H](c2ccccc2)[C@H](C(=O)OC)[C@H]1C | 4.28 µM (active) | 4.47 µM (active) |  |
| > 80 µM (inactive) | CCOC(=O)N1CCN(C(=O)c2cc3c(O)nc4ccccc4c3s2)CC1 |  |  |  |
| > 80 µM (inactive) | CCc1ccc(CN(C)C(=O)c2cc(=O)c3ccccc3o2)cc1 |  |  |  |
| > 80 µM (inactive) | O=C(COc1ccc2ccccc2c1)N1CCN(C(=O)c2ccc([N+](=O)[O-])cc2)CC1 |  |  | IC50 [13]: > 47.1 µM (inactive); EC50 [14]: > 53 µM (inactive) |
|  | CC(=O)Nc1ccc(CNc2nc(NCCN(C)C)nc3cc(-c4ccccc4)sc23)cc1 |  |  | AC50 [7]: 1.37 µM (active) |
|  | Cc1ccc(NC(=O)c2ncn(CC(=O)N3CCN(c4ccccn4)CC3)n2)cc1C |  |  | AC50 [15]: > 52 µM (inactive); AC50 [16]: > 52 µM (inactive) |
| 121 µM (inactive) | CCOC(=O)N(C)c1c(CC)nc2c(OCc3ccc(Cl)cc3Cl)cccn12 |  |  |  |
|  | CC(=O)Nc1ccc(Nc2cc(C)nc(Nc3ccc(NC(C)=O)cc3)n2)cc1 | 16.4 µM (active) | 11 µM (active) |  |
